The values below come from ChEMBL document CHEMBL1124664, “Synthesis and cytostatic and antiviral activities of 1-beta-D-ribofuranosyl-5-alkylcytosine (5-alkylcytidine) cyclic 3',5'-monophosphates” (1989).

Molecules are shown by their SMILES. ≈ marks a conversion by molar mass, not a printed value. Calls of active or inactive are those of the source. The rule behind the calls is not given here. Some results are limits rather than exact numbers.

In assay [1] the test system is Human alphaherpesvirus 2. Briefly: Antiviral activity on the replication of HSV-2 at 400 ug/mL. The format is functional, organism-based.
Assay [2] relates to Human alphaherpesvirus 1. Briefly: Antiviral activity on the replication of HSV-1 at 400 ug/mL. The format is functional, organism-based.
In assay [3] the test system is Vesicular stomatitis virus. Briefly: Antiviral activity on the replication of vesicular stomatitis virus at 400 ug/mL. The format is functional, organism-based.
Assay [4] deals with Vaccinia virus. Description: Antiviral activity on the replication of vaccinia virus at 400 ug/mL. The format is functional, organism-based. Particulars: Orthopoxvirus vaccinia.
Assay [5] concerns L1210/ara C. Description: Inhibition of L1210/arac cell proliferation at 200 ug/mL; IA means Inactive. The format is functional, cell-based. Conditions: Mus musculus.
The subject of assay [6] is L1210. Briefly: Inhibition of L1210/0 cell proliferation. The format is functional. Conditions: Mus musculus, read-out: ID50 (the source's name).
Assay [7] has as its system L1210. Description: Cytotoxic activity against murine leukemia L1210 cells. The format is functional. Particulars: Mus musculus, read-out: ID50 (the source's name).
The subject of assay [8] is L1210. Description: Cytotoxic activity against murine leukemia L1210/deoxycytidine kinase deficient cell lines. The format is functional. Particulars: Mus musculus, read-out: ID50 (the source's name).
For assay [9], the species on record is Oryctolagus cuniculus. Briefly: Inhibition of rabbit skeletal muscle protein kinase I. The format is functional.
The subject of assay [10] is L1210/ara C. Description: Inhibition of L1210/ara C cell proliferation. The format is functional. Particulars: Mus musculus, read-out: ID50 (the source's name).

As to `CCc1cn(C2O[C@H](COP(=O)(O)O)[C@@H](O)[C@H]2O)c(=O)nc1N` (stereo partly specified), the outcome in assay [1], in assay [2], in [3] and in [4] was inactive.

With `CCCc1cn(C2O[C@H](COP(=O)(O)O)[C@@H](O)[C@H]2O)c(=O)nc1N` (stereo partly specified), the outcome in [1], in assay [2], in assay [3] and in assay [4] was inactive.

On to `Cc1cn([C@@H]2O[C@H](CO)[C@@H](O)[C@H]2O)c(=O)nc1N`, for which the outcome in [5] was inactive. In addition, in assay [6], the IC50 stood at 94 µg/mL (≈ 365 µM).

Regarding `CC(C)c1cn([C@@H]2O[C@@H]3COP(=O)(O)O[C@H]3[C@H]2O)c(=O)nc1N.N`, the result in assay [1], in [2], in assay [3] and in [4] was inactive. The IC50 in [7] and in assay [8] was over 200 µg/mL throughout. In addition, the Ka in assay [9] was 0.8 µM.

In [9], `Nc1ccn([C@@H]2O[C@@H]3COP(=O)(O)O[C@H]3[C@H]2O)c(=O)n1` had a Ka of 0.03 µM. Moreover, the IC50 in assay [6] was 43 µg/mL (≈ 141 µM).

Consider `CCCCCCCCc1cn(C2O[C@H](COP(=O)(O)O)[C@@H](O)[C@H]2O)c(=O)nc1N` (stereo partly specified), for which the result in assay [1], in assay [2], in [3] and in [4] was inactive.

`CCCCCc1cn(C2O[C@H](COP(=O)(O)O)[C@@H](O)[C@H]2O)c(=O)nc1N` (stereo partly specified): the result in assay [1], in assay [2], in assay [3] and in assay [4] was inactive.

Consider `CC(C)c1cn(C2O[C@H](COP(=O)(O)O)[C@@H](O)[C@H]2O)c(=O)nc1N` (stereo partly specified), for which the result in assay [1], in assay [2], in assay [3] and in assay [4] was inactive.

As for `CCCCCCCCc1cn([C@@H]2O[C@@H]3COP(=O)(O)O[C@H]3[C@H]2O)c(=O)nc1N.N`, the result in assay [1], in assay [2], in assay [3] and in [4] was inactive. For the same compound, the IC50 in [7] and in assay [8] was over 200 µg/mL each time. The compound also registered a Ka in assay [9] of 0.8 µM.

Consider `CCCCCCCCc1cnc(O)nc1N`, for which, in [5], the result was inactive. Moreover, the IC50 in [6] was found to be 190 µg/mL (≈ 851 µM).

With `CC(C)c1cn([C@@H]2O[C@H](CO)[C@@H](O)[C@H]2O)c(=O)nc1N`, the figures for the IC50 in assay [10] and in [6] were 39 µg/mL (≈ 137 µM) and 35 µg/mL (≈ 123 µM), respectively. The outcome in [5] was inactive.

With `CCCCCCc1cn([C@@H]2O[C@@H]3COP(=O)(O)O[C@H]3[C@H]2O)c(=O)nc1N.N`, the outcome in assay [1], in [2], in assay [3] and in assay [4] was inactive. The IC50 in assay [7] and in [8] was over 200 µg/mL in each case. Further, the Ka in assay [9] is 0.8 µM.

Take `CCCCCCc1cn(C2O[C@H](COP(=O)(O)O)[C@@H](O)[C@H]2O)c(=O)nc1N` (stereo partly specified): the outcome in assay [1], in [2], in [3] and in assay [4] was inactive.

For the compound `CCCCc1cn([C@@H]2O[C@@H]3COP(=O)(O)O[C@H]3[C@H]2O)c(=O)nc1N.N`, the result in [1], in [2], in [3] and in assay [4] was inactive. Besides, the IC50 in assay [7] and in [8] was over 200 µg/mL each time. In assay [9], this compound had a Ka of 0.8 µM.

Consider `CCCCc1cn(C2O[C@H](COP(=O)(O)O)[C@@H](O)[C@H]2O)c(=O)nc1N` (stereo partly specified), for which the outcome in assay [1], in assay [2], in assay [3] and in [4] was inactive.

As for `Nc1ccn([C@@H]2O[C@H](COP(=O)(O)O)[C@@H](O)[C@H]2O)c(=O)n1`, the outcome in assay [5] was inactive. In assay [6], the IC50 worked out at 43 µg/mL (≈ 133 µM).

`Cc1cn([C@@H]2O[C@@H]3COP(=O)(O)O[C@H]3[C@H]2O)c(=O)nc1N.N`: the outcome in assay [1], in assay [2], in [3] and in [4] was inactive. Also, the IC50 in [7] and in assay [8] was over 200 µg/mL throughout.

For `Cc1cn([C@@H]2O[C@H](COP(=O)(O)O)[C@@H](O)[C@H]2O)c(=O)nc1N`, the outcome in assay [1], in [2], in [5], in [3] and in assay [4] was inactive. The IC50 in [6] came out at 162 µg/mL (≈ 480 µM).

As for `CCc1cn([C@@H]2O[C@@H]3COP(=O)(O)O[C@H]3[C@H]2O)c(=O)nc1N.N`, the outcome in assay [1], in assay [2], in [3] and in assay [4] was inactive. Also, the IC50 in [7] and in [8] was over 200 µg/mL each time. The same compound gave a Ka in assay [9] of 0.8 µM.
